Test [1] concerns the target human TLR9 (Homo sapiens (Human), UniProt Q9NR96). The test can be described thus: TLR9 inhibition reporter assay (HEK-Blue cells, SEAP reporter, ODN2006 stimulation).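 Also: compounds tested over 0.05 nM to 50 µM, 22 h incubation, inhibition taken as SEAP signal drop from agonist plus DMSO wells toward a known inhibitor control.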
Test [2] concerns the target human TLR8 (Homo sapiens (Human), UniProt Q9NR97). Put plainly: TLR8 inhibition reporter assay (HEK-Blue cells, SEAP reporter, R848 stimulation).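 Also: compounds tested from 0.05 nM to 50 µM, 22 h at 37 °C, SEAP measured with HEK-Blue Detection, inhibition relative to agonist plus DMSO versus a known inhibitor.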
Test [3] addresses human TLR7 (Homo sapiens (Human), UniProt Q9NYK1). Put plainly: TLR7 inhibition reporter assay (HEK-Blue cells, SEAP reporter, gardiquimod stimulation). To be noted: HEK-Blue cells overexpressing human TLR7, gardiquimod 7.5 μM. It counts as cell-based.
The mark [4] stands for this setting: read-out: TLR9 IC50, HEK-Blue cells overexpressing human TLR9, ODN2006 5 nM.
The mark [5] stands for this setting: read-out: TLR8 IC50, HEK-Blue cells overexpressing human TLR8, R848 15.9 μM.
[6] abbreviates: TLR9 IC50, HEK-Blue cells overexpressing human TLR9, ODN2006 5 nM.
Setting [7] is: TLR8 IC50, HEK-Blue cells overexpressing human TLR8, R848 15.9 μM.

Like-named read-outs stand apart in the source and are kept apart here.

Chain of human TLR8 (Q9NR97 27-1041): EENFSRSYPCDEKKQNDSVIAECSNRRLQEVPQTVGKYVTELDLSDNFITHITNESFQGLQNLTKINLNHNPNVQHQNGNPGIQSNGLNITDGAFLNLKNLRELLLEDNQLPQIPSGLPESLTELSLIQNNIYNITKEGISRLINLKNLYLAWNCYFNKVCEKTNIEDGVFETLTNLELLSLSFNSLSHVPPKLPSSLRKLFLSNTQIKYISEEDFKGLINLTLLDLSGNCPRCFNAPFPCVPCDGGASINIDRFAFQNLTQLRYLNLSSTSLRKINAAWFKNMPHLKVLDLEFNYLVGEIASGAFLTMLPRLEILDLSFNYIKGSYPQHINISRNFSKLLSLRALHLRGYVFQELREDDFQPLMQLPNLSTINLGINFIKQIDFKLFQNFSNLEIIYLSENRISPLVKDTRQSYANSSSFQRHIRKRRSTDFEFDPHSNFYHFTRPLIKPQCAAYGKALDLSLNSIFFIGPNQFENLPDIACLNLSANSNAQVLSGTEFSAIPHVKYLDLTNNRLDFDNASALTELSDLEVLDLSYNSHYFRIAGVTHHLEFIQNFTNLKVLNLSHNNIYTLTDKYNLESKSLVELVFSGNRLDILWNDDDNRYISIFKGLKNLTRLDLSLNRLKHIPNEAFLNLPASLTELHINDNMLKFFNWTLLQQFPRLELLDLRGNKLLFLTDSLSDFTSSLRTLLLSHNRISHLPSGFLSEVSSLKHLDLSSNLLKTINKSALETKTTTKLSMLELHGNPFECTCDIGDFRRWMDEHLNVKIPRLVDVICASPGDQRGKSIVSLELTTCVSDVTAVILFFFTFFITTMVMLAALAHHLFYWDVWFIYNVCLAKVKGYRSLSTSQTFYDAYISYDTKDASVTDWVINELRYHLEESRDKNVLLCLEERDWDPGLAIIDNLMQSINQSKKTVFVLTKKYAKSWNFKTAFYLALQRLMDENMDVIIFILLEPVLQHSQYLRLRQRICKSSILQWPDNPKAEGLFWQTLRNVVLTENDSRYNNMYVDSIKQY
Chain of human TLR9 (Q9NR96 26-1032): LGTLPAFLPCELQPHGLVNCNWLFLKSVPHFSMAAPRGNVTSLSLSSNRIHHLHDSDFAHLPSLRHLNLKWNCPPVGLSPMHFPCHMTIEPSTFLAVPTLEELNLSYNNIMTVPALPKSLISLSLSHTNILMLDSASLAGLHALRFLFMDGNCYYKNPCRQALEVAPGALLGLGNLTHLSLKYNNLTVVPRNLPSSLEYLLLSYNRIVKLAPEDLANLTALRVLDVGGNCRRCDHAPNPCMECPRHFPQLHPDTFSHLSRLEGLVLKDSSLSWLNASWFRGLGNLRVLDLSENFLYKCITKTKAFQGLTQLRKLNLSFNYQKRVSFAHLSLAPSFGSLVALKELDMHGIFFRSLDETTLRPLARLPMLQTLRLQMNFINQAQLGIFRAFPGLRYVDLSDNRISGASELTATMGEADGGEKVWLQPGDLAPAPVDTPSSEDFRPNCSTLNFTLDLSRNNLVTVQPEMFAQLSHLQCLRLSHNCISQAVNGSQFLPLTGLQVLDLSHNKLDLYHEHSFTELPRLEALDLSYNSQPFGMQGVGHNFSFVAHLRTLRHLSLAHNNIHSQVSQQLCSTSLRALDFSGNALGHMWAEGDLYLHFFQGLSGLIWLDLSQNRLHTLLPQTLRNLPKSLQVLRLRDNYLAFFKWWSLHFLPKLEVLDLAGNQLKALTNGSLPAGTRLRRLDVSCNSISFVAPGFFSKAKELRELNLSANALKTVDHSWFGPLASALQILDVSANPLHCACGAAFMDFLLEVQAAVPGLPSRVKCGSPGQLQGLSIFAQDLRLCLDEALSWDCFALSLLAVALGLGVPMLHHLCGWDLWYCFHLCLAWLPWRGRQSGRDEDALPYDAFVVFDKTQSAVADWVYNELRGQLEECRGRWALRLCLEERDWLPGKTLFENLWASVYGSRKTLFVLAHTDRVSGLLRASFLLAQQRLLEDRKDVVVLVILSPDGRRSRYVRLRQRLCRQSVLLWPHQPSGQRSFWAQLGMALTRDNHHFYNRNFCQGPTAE
Chain of human TLR7 (Q9NYK1 27-1049): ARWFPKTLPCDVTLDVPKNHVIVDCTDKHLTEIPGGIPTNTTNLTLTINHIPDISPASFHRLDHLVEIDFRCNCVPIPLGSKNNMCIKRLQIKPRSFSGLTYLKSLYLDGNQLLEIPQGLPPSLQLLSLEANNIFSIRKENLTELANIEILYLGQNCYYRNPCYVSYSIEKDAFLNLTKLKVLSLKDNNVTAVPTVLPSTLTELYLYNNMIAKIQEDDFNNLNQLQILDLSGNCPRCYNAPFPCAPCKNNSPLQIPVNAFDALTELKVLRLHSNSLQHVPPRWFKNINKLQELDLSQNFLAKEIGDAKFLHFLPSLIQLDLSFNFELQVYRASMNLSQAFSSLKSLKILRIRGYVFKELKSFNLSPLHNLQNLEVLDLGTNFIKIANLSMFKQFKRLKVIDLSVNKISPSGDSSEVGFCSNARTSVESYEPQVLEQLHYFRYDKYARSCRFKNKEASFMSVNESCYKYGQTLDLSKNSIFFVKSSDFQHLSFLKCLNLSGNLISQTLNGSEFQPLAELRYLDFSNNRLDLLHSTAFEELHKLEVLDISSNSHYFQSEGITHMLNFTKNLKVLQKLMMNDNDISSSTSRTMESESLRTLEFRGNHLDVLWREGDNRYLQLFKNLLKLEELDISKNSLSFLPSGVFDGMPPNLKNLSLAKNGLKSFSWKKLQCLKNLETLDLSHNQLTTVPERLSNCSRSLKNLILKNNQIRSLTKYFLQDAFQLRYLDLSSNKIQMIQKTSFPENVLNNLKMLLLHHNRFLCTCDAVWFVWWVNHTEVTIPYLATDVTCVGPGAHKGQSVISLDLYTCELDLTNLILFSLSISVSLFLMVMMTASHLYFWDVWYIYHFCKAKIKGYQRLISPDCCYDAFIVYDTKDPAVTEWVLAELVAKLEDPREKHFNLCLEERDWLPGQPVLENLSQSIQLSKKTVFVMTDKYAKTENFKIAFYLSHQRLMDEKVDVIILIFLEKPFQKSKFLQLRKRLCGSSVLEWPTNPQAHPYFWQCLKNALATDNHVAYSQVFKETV

On to `Cc1cc(-c2[nH]c3ccc(C4CCN(C(=O)C(F)(F)F)CC4)cc3c2C(C)C)ccn1` [Example 614, 2,2,2-trifluoro-1-(4-(3-isopropyl-2-(2-methylpyridin-4-yl)-1H-indol-5-yl)piperidin-1-yl)ethan-1-one], for which the results for the IC50 in test [1] (setting [4]), in test [2] (setting [5]) and in test [3] were 17500 nM, 469 nM and 119 nM, respectively.
Take `Cc1cc(-c2[nH]c3ccc(C4CCN(C(=O)C(C)(C)C#N)CC4)cc3c2C(C)C)ccn1` [Example 615, 3-(4-(3-isopropyl-2-(2-methylpyridin-4-yl)-1H-indol-5-yl)piperidin-1-yl)-2,2-dimethyl-3-oxopropanenitrile]: the IC50 amounted to 12200 nM in test [1] (setting [4]), 243 nM in test [2] (setting [5]) and 80.9 nM in test [3].
For `Cc1cc(-c2[nH]c3ccc(C4CCN(C(=O)CC#N)CC4)cc3c2C(C)C)ccn1` [Example 616, 3-(4-(3-isopropyl-2-(2-methylpyridin-4-yl)-1H-indol-5-yl)piperidin-1-yl)-3-oxopropanenitrile] the same measures were 32900 nM, 121 nM and 33.7 nM.
Taken in the same sequence, the figures for `Cc1cc(-c2[nH]c3ccc(C4CCN(C(=O)C5CC(=O)N(C)C5)CC4)cc3c2C(C)C)ccn1` (stereo not drawn) [Example 619, 4-(4-(3-isopropyl-2-(2-methylpyridin-4-yl)-1H-indol-5-yl)piperidine-1-carbonyl)-1-methylpyrrolidin-2-one] were > 50000 nM, 67.9 nM and 51.1 nM.
`CNCC(=O)N1CCC(c2ccc3[nH]c(-c4cc(C)ncc4C)c(C(C)C)c3c2)CC1` [Example 620, 1-(4-(2-(2,5-dimethylpyridin-4-yl)-3-isopropyl-1H-indol-5-yl)piperidin-1-yl)-2-(methylamino)ethan-1-one]: the IC50 in test [1] (setting [6]) is 3570 nM; in test [2] (setting [7]) it was 3.5 nM; in test [3], 8.1 nM.
Consider `CNCC(=O)N1CCC(c2ccc3[nH]c(-c4cc(C)ncc4F)c(C(C)C)c3c2)CC1` [Example 621, 1-(4-(2-(5-fluoro-2-methylpyridin-4-yl)-3-isopropyl-1H-indol-5-yl)piperidin-1-yl)-2-(methylamino)ethan-1-one], for which the figures for the IC50 in test [1] (setting [4]), in test [2] (setting [5]) and in test [3] were 1590 nM, 5 nM and 2.4 nM, respectively.
On to `CNCC(=O)N1CCC(c2ccc3[nH]c(-c4cc(C)nc(C)c4F)c(C(C)C)c3c2)CC1` [Example 622, 1-(4-(2-(3-fluoro-2,6-dimethylpyridin-4-yl)-3-isopropyl-1H-indol-5-yl)piperidin-1-yl)-2-(methylamino)ethan-1-one], for which the IC50 in test [1] (setting [4]) worked out at 4010 nM; in test [2] (setting [5]), 6.1 nM; in test [3], 1.2 nM.
On to `CCc1c(-c2ccnc(C)c2)[nH]c2ccc(C3CCN(C(=O)[C@H]4CC(F)(F)CN4)CC3)cc12` [Example 623, (R)-(4,4-difluoropyrrolidin-2-yl)(4-(3-ethyl-2-(2-methylpyridin-4-yl)-1H-indol-5-yl)piperidin-1-yl)methanone], for which the IC50 in test [1] (setting [4]) came to 14500 nM; in test [2] (setting [5]), 226 nM; in test [3] it was 201 nM.
For `CCc1c(-c2ccnc(C)c2)[nH]c2ccc(C3CCN(C(=O)C4CCCNC4)CC3)cc12` (stereo not drawn) [Example 624, (4-(3-ethyl-2-(2-methylpyridin-4-yl)-1H-indol-5-yl)piperidin-1-yl)(piperidin-3-yl)methanone] the same measures were 311 nM, 44.1 nM and 128 nM.
For `CCc1c(-c2ccnc(C)c2)[nH]c2ccc(C3CCN(C(=O)C4CCNCC4)CC3)cc12` [Example 625, (4-(3-ethyl-2-(2-methylpyridin-4-yl)-1H-indol-5-yl)piperidin-1-yl)(piperidin-4-yl)methanone] the same measures were 177 nM, 83.5 nM and 84.5 nM.
Turning to `CCc1c(-c2ccnc(C)c2)[nH]c2ccc(C3CCN(C(=O)C4(C)CCNCC4)CC3)cc12` [Example 626, (4-(3-ethyl-2-(2-methylpyridin-4-yl)-1H-indol-5-yl)piperidin-1-yl)(4-methylpiperidin-4-yl)methanone], the IC50 was 169 nM in test [1] (setting [4]), 53.5 nM in test [2] (setting [5]) and 62.6 nM in test [3].
For `CCc1c(-c2ccnc(C)c2)[nH]c2ccc(C3CCN(C(=O)C4CCNCC4c4ccccc4)CC3)cc12` (stereo not drawn) [Example 627, (4-(3-ethyl-2-(2-methylpyridin-4-yl)-1H-indol-5-yl)piperidin-1-yl)(3-phenylpiperidin-4-yl)methanone], the IC50 in test [1] (setting [4]) was determined as 546 nM; in test [2] (setting [5]), 325 nM; in test [3] it was 531 nM.
Turning to `CCc1c(-c2ccnc(C)c2)[nH]c2ccc(C3CCN(C(=O)[C@@H]4CCCCN4)CC3)cc12` [Example 628, (S)-(4-(3-ethyl-2-(2-methylpyridin-4-yl)-1H-indol-5-yl)piperidin-1-yl)(piperidin-2-yl)methanone], the IC50 in test [1] (setting [6]) stood at 363 nM; in test [2] (setting [7]), 18.3 nM; in test [3], 39.2 nM.
For `CCc1c(-c2ccnc(C)c2)[nH]c2ccc(C3CCN(C(=O)[C@@H]4CCCN4)CC3)cc12` [Example 629] the same measures were 482 nM, 18.7 nM and 60.4 nM.
With `CCc1c(-c2ccnc(C)c2)[nH]c2ccc(C3CCN(C(=O)C4CNC4)CC3)cc12` [Example 630, azetidin-3-yl (4-(3-ethyl-2-(2-methylpyridin-4-yl)-1H-indol-5-yl)piperidin-1-yl)methanone], the IC50 in test [1] (setting [4]) came to 333 nM; in test [2] (setting [5]) it was 40.2 nM; in test [3], 70.4 nM.
Regarding `CCc1c(-c2ccnc(C)c2)[nH]c2ccc(C3CCN(C(=O)C4CC5(CCNCC5)C4)CC3)cc12` [Example 631, (4-(3-ethyl-2-(2-methylpyridin-4-yl)-1H-indol-5-yl)piperidin-1-yl)(7-azaspiro[3.5]nonan-2-yl)methanone], the results for the IC50 in test [1] (setting [4]), in test [2] (setting [5]) and in test [3] were 434 nM, 36.8 nM and 75.6 nM, respectively.
For `CCc1c(-c2ccnc(C)c2)[nH]c2ccc(C3CCN(C(=O)CCC4CCNCC4)CC3)cc12` [Example 632, 1-(4-(3-ethyl-2-(2-methylpyridin-4-yl)-1H-indol-5-yl)piperidin-1-yl)-3-(piperidin-4-yl)propan-1-one] the same measures were 795 nM, 35.8 nM and 91.8 nM.
For `CCc1c(-c2ccnc(C)c2)[nH]c2ccc(C3CCN(C(=O)C4CCNC4)CC3)cc12` (stereo not drawn) [Example 633, (4-(3-ethyl-2-(2-methylpyridin-4-yl)-1H-indol-5-yl)piperidin-1-yl)(pyrrolidin-3-yl)methanone] the same measures were 311 nM, 83.3 nM and 39 nM.
On to `Cc1cc(-c2[nH]c3ccc(C4CCN(C(=O)C5(N)COC5)CC4)cc3c2C(C)C)ccn1` [Example 634, (3-aminooxetan-3-yl)(4-(3-isopropyl-2-(2-methylpyridin-4-yl)-1H-indol-5-yl)piperidin-1-yl)methanone], for which the results for the IC50 in test [1] (setting [4]), in test [2] (setting [5]) and in test [3] were > 50000 nM, 223 nM and 73.5 nM, respectively.
In the case of `Cc1cc(-c2[nH]c3ccc(C4CCN(C)CC4)cc3c2C(C)C)c(F)cn1` [Example 635, 2-(5-fluoro-2-methylpyridin-4-yl)-3-isopropyl-5-(1-methylpiperidin-4-yl)-1H-indole], the IC50 is 3690 nM in test [1] (setting [4]), 5.1 nM in test [2] (setting [5]) and 5.6 nM in test [3].
On to `Cc1cc(-c2[nH]c3ccc(C4CCN(C)CC4)cc3c2C(C)C)c(C)cn1` [Example 636, 2-(2,5-dimethylpyridin-4-yl)-3-isopropyl-5-(1-methylpiperidin-4-yl)-1H-indole], for which the IC50 in test [1] (setting [4]) amounted to 1370 nM; in test [2] (setting [5]), 1 nM; in test [3] it was 9.8 nM.
In the case of `Cc1nccc(-c2[nH]c3ccc(C4CCN(C)CC4)cc3c2C(C)C)c1C` [Example 637, 2-(2,3-dimethylpyridin-4-yl)-3-isopropyl-5-(1-methylpiperidin-4-yl)-1H-indole], the IC50 is 1540 nM in test [1] (setting [4]), 42.1 nM in test [2] (setting [5]) and 36.4 nM in test [3].
`COc1cc(-c2[nH]c3ccc(C4CCN(C)CC4)cc3c2C(C)C)ccn1` [Example 638, 3-isopropyl-2-(2-methoxypyridin-4-yl)-5-(1-methylpiperidin-4-yl)-1H-indole]: the IC50 in test [1] (setting [4]) was determined as 3300 nM; in test [2] (setting [5]), 55.1 nM; in test [3], 15.6 nM.
Taken in the same sequence, the figures for `COc1cc(-c2[nH]c3ccc(C4CCN(CC(F)(F)F)CC4)cc3c2C(C)C)ccn1` [Example 639, 3-isopropyl-2-(2-methoxypyridin-4-yl)-5-(1-(2,2,2-trifluoroethyl)piperidin-4-yl)-1H-indole] were 19400 nM, 13400 nM and 3110 nM.
As to `Cc1cc(-c2[nH]c3ccc(C4CCN(C(C)C)CC4)cc3c2C(C)C)c(C)cn1` [Example 641, 2-(2,5-dimethylpyridin-4-yl)-3-isopropyl-5-(1-isopropylpiperidin-4-yl)-1H-indole], the IC50 in test [1] (setting [4]) came to 2670 nM; in test [2] (setting [5]), 9.7 nM; in test [3], 33 nM.
For `Cc1cc(-c2[nH]c3ccc(C4CCN(CC(=O)N(C)C)CC4)cc3c2C(C)C)c(C)cn1` [Example 642, 2-(4-(2-(2,5-dimethylpyridin-4-yl)-3-isopropyl-1H-indol-5-yl)piperidin-1-yl)-N,N-dimethylacetamide], the IC50 in test [1] (setting [4]) worked out at 4100 nM; in test [2] (setting [5]), 5.6 nM; in test [3] it was 16.1 nM.

These data come from patent US10660877B2 (BRISTOL-MYERS SQUIBB COMPANY, priority 2016, dated 2020).
